# Results: patent US8609587B2, “Synergistic herbicidal compositions containing propyzamide and aminopyralid” (Dow AgroSciences, LLC., priority 2010, dated 2013)
# Tests used:
# Format in all cases: in vivo
# [1] = test system: Matricaria recutita L. (wild chamomile); assay: Field trial in winter oilseed rape, visual weed control, MATCH; conditions: 112 to 188 Days after Application
# Protocol: (§1) Field trials were conducted in winter oilseed rape crop using small plot research methodology. The oilseed rape crop was grown using normal cultural practices for the respective area of the trials, using varieties, fertilization and maintenance to ensure normal growth of the crop and the weeds. Plot size was 2 meters (m) wide by 10 m long with 4 replicates by treatment. All treatments were applied preemergence to early postemergence to the weeds using a compressed air backpack sprayer delivering 200 liters per hectare (L/ha) spray volume. Commercially available product of propyzamide/pronamide was mixed with a formulation of aminopyralid potassium at appropriately formulated product rates to achieve the desired rates based on a unit area of application (hectare) to achieve the desired rates as shown. Treatments consisted of propyzamide applied alone, as well as aminopyralid applied alone, and in combination, to measure herbicidal weed control and any synergistic interactions. Treatments were rated at different intervals from treatment to time of evaluation up to the following year when the crop starts to grow again in the spring. The weed efficacy was compared to the untreated control plants. Visual weed control was scored on a scale of 0 to 100 percent where 0 corresponds to no injury and 100 corresponds to complete kill. […]
# [2] = test system: Papaver rhoeas L. (corn poppy); assay: Field trial in winter oilseed rape, visual weed control, PAPRH; conditions: for % Control PAPRH (1) Ob: France, 112 to 188 Days after Application; for % Control PAPRH (2) Ob: Great Britain
# Protocol: (§2) Field trials were conducted in winter oilseed rape crop using small plot research methodology. The oilseed rape crop was grown using normal cultural practices for the respective area of the trials, using varieties, fertilization and maintenance to ensure normal growth of the crop and the weeds. Plot size was 2 meters (m) wide by 10 m long with 4 replicates by treatment. All treatments were applied preemergence to early postemergence to the weeds using a compressed air backpack sprayer delivering 200 liters per hectare (L/ha) spray volume. Commercially available product of propyzamide/pronamide was mixed with a formulation of aminopyralid potassium at appropriately formulated product rates to achieve the desired rates based on a unit area of application (hectare) to achieve the desired rates as shown. Treatments consisted of propyzamide applied alone, as well as aminopyralid applied alone, and in combination, to measure herbicidal weed control and any synergistic interactions. Treatments were rated at different intervals from treatment to time of evaluation up to the following year when the crop starts to grow again in the spring. The weed efficacy was compared to the untreated control plants. Visual weed control was scored on a scale of 0 to 100 percent where 0 corresponds to no injury and 100 corresponds to complete kill. Colby's equation was used to determine the herbicidal effects expected from the mixtures (Colby, S. R. […] Calculation of the synergistic and antagonistic response of herbicide combinations.). The following equation was used to calculate the expected activity of mixtures containing two active ingredients, A and B: […] A=observed efficacy of active ingredient A at the same concentration as used in the mixture; B=observed efficacy of active ingredient B at the same concentration as used in the mixture.
# [3] = test system: Viola arvensis Murr. (field violet); assay: Field trial in winter oilseed rape, visual weed control, VIOAR; conditions: 112 to 188 Days after Application
# Protocol: as §2
# [4] = test system: Matricaria spp L. (chamomile species); assay: Field trial in winter oilseed rape, visual weed control, MATSS; conditions: 93 to 188 Days after Application
# Protocol: as §1
# [5] = test system: Alopecurus myosuroides Huds. (blackgrass); assay: Field trial in winter oilseed rape, visual weed control, ALOMY; conditions: 93 to 200 Days after Application
# Protocol: as §2
# [6] = test system: Poa annua L. (annual bluegrass); assay: Field trial in winter oilseed rape, visual weed control, POANN; conditions: Great Britain, 93 to 200 Days after Application
# Protocol: as §2
# [7] = test system: Brassica napus L. ssp. Napus (winter oil seed rape); assay: Field trial, crop tolerance (crop injury) of winter oilseed rape, BRSNW; conditions: 167 Days after Application
# Protocol: as §2
smiles,measurement,setting,value
"Nc1cc(Cl)nc(C(=O)O)c1Cl [Aminopyralid, 4-amino-3,6-dichloro-2-pyridinecarboxylic acid]",% Control MATCH Ob,[1]; aminopyralid 6 g ae/ha alone,80%
same,% Control PAPRH (1) Ob,[2]; aminopyralid 6 g ae/ha alone,48%
same,% Control PAPRH (1) Ob,[2]; aminopyralid 8 g ae/ha alone,68%
same,% Control PAPRH (2) Ob,"[2]; aminopyralid 6 g ae/ha alone, 93 to 188 Days after Application (Table 2)",48%
same,% Control PAPRH (2) Ob,"[2]; aminopyralid 6 g ae/ha alone, 112 to 188 Days after Application (Table 1)",0%
same,% Control PAPRH (2) Ob,"[2]; aminopyralid 8 g ae/ha alone, 93 to 188 Days after Application (Table 2)",68%
same,% Control PAPRH (2) Ob,"[2]; aminopyralid 8 g ae/ha alone, 112 to 188 Days after Application (Table 1)",75%
same,% Control VIOAR Ob,[3]; aminopyralid 6 g ae/ha alone,0%
same,% Control VIOAR Ob,[3]; aminopyralid 8 g ae/ha alone,0%
same,% Control MATSS Ob,[4]; aminopyralid 10 g ae/ha alone,48%
same,% Control ALOMY Ob,[5]; aminopyralid 6 g ae/ha alone,0%
same,% Control ALOMY Ob,[5]; aminopyralid 8 g ae/ha alone,0%
same,% Control POANN (1) Ob,[6]; aminopyralid 6 g ae/ha alone,0%
same,% Control POANN (2) Ob,[6]; aminopyralid 6 g ae/ha alone,0%
same,% Control POANN (1) Ob,[6]; aminopyralid 8 g ae/ha alone,0%
same,% Control POANN (2) Ob,[6]; aminopyralid 8 g ae/ha alone,0%
same,% Crop Injury BRSNW Ob,[7]; aminopyralid 6 g ae/ha alone,23%
same,% Crop Injury BRSNW Ob,[7]; aminopyralid 8 g ae/ha alone,22%
"C#CC(C)(C)NC(=O)c1cc(Cl)cc(Cl)c1 [Propyzamide, 3,5-dichloro-N-(1,1-dimethylpropynyl)benzamide]",% Control MATCH Ob,[1]; propyzamide 750 g ai/ha alone,0%
same,% Control PAPRH (1) Ob,[2]; propyzamide 750 g ai/ha alone,18%
same,% Control PAPRH (2) Ob,"[2]; propyzamide 750 g ai/ha alone, 112 to 188 Days after Application (Table 1)",0%
same,% Control PAPRH (2) Ob,"[2]; propyzamide 840 g ai/ha alone, 93 to 188 Days after Application (Table 2)",11%
same,% Control VIOAR Ob,[3]; propyzamide 750 g ai/ha alone,27%
same,% Control MATSS Ob,[4]; propyzamide 750 g ai/ha alone,7%
same,% Control ALOMY Ob,[5]; propyzamide 750 g ai/ha alone,75%
same,% Control POANN (1) Ob,[6]; propyzamide 750 g ai/ha alone,22%
same,% Control POANN (2) Ob,[6]; propyzamide 750 g ai/ha alone,22%
same,% Control POANN (1) Ob,[6]; propyzamide 840 g ai/ha alone,22%
same,% Crop Injury BRSNW Ob,[7]; propyzamide 750 g ai/ha alone,0%
same,% Crop Injury BRSNW Ob,[7]; propyzamide 840 g ai/ha alone,2%
